SMILES strings stand for the structures.

T1 sequence (Q9Y5Y9 whole entry, looked up): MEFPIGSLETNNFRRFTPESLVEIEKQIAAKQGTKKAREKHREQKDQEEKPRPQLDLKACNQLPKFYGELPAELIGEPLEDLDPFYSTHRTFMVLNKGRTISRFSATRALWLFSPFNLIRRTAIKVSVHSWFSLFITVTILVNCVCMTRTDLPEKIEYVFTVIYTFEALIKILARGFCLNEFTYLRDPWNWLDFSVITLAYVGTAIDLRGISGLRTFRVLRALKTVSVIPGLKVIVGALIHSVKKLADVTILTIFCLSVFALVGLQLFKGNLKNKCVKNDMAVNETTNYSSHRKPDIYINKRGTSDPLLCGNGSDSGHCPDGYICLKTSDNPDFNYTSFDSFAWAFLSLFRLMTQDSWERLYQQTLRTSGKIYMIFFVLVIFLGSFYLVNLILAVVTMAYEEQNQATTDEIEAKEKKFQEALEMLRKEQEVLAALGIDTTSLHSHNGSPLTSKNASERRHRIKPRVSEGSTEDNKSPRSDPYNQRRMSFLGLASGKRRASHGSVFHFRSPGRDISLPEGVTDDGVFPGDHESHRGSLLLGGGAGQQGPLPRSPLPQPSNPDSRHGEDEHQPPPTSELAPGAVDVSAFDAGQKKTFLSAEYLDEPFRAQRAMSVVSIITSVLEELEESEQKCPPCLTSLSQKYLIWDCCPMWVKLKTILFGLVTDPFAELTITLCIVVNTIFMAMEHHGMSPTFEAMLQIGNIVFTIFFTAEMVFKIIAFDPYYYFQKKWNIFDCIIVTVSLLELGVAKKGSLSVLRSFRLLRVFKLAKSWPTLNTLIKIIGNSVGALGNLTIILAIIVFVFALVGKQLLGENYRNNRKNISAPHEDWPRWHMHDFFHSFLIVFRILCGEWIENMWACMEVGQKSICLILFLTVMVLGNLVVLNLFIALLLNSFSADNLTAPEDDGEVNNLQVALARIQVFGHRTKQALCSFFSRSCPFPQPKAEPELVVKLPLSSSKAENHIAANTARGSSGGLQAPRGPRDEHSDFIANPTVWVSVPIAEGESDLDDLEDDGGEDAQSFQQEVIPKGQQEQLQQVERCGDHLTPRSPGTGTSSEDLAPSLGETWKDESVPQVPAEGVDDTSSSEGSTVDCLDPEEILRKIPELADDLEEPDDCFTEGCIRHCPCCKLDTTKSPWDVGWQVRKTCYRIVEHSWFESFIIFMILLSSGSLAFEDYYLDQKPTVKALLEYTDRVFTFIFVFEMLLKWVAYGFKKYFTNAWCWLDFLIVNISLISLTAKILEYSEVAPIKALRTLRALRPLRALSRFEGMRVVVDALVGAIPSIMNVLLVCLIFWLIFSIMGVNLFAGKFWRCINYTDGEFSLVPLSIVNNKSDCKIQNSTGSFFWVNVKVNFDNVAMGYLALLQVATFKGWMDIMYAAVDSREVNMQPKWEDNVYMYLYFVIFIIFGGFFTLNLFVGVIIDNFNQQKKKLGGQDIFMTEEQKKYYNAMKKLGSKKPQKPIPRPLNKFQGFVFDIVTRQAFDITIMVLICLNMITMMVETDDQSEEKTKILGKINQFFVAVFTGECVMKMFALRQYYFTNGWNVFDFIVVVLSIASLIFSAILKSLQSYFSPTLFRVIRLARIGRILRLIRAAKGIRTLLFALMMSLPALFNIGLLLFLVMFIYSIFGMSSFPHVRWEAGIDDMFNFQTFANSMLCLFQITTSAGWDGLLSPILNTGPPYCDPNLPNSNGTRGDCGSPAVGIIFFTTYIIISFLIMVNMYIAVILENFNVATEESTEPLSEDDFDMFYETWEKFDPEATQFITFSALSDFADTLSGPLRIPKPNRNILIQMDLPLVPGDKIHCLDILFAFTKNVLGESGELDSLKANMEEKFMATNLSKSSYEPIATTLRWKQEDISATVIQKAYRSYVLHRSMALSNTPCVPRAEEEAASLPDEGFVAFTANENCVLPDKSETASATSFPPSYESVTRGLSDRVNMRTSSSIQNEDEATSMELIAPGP

One assay has as its target T1, NaV1.8 (Homo sapiens, UniProt Q9Y5Y9). Kind of assay: Activity against NaV 1.8 channel (NaV inhibition assay). Format: cell-based.
Conditions: not given
On the procedure:
Compounds of the invention are useful as antagonists of voltage-gated sodium ion channels. Antagonist properties of test compounds were assessed as follows. Cells expressing the NaV of interest were placed into microtiter plates. After an incubation period, the cells were stained with fluorescent dyes sensitive to the transmembrane potential. The test compounds were added to the microtiter plate. The cells were stimulated with either a chemical or electrical means to evoke a NaV dependent membrane potential change from unblocked channels, which was detected and measured with trans-membrane potential-sensitive dyes. Antagonists were detected as a decreased membrane potential response to the stimulus. The optical membrane potential assay utilized voltage-sensitive FRET sensors described by Gonzalez and Tsien (See, Gonzalez, J. E. and R. Y. Tsien (1995) “Voltage sensing by fluorescence resonance energy transfer in single cells” Biophys J 69(4):1272-80, and Gonzalez, J. E. and R. Y. Tsien (1997) “Improved indicators of cell membrane potential that use fluorescence resonance energy transfer” Chem Biol 4(4):269-77) in combination with instrumentation for measuring fluorescence changes such as the Voltage/Ion Probe Reader (VIPRO®) (See, Gonzalez, J. E., K. Oades, et al. (1999) “Cell-based assays and instrumentation for screening ion-channel targets” Drug Discov Today 4(9):431-439).
24 hours before the assay on VIPR, CHO cells endogenously expressing a NaV1.2 type voltage-gated NaV are seeded in 96-well poly-lysine coated plates at 60,000 cells per well. Other subtypes are performed in an analogous mode in a cell line expressing the NaV of interest.
The following is an example of how NaV1.3 inhibition activity is measured using the optical membrane potential method #2. Other subtypes are performed in an analogous mode in a cell line expressing the NaV of interest.
HEK293 cells stably expressing NaV1.3 are plated into 96-well microtiter plates. After an appropriate incubation period, the cells are stained with the voltage sensitive dyes CC2-DMPE/DiSBAC2(3) as follows.
Patch clamp electrophysiology was used to assess the efficacy and selectivity of sodium channel blockers in dorsal root ganglion neurons. Rat neurons were isolated from the dorsal root ganglions and maintained in culture for 2 to 10 days in the presence of NGF (50 ng/ml) (culture media consisted of NeurobasalA supplemented with B27, glutamine and antibiotics). Small diameter neurons (nociceptors, 8-12 μm in diameter) have been visually identified and probed with fine tip glass electrodes connected to an amplifier (Axon Instruments). The “voltage clamp” mode has been used to assess the compound's IC50 holding the cells at −60 mV. In addition, the “current clamp” mode has been employed to test the efficacy of the compounds in blocking action potential generation in response to current injections. The results of these experiments have contributed to the definition of the efficacy profile of the compounds.
TTX-resistant sodium currents were recorded from DRG somata using the whole-cell variation of the patch clamp technique. Recordings were made at room temperature (˜22° C.) with thick walled borosilicate glass electrodes (WPI; resistance 3-4 MΩ) using an Axopatch 200B amplifier (Axon Instruments). After establishing the whole-cell configuration, approximately 15 minutes were allowed for the pipette solution to equilibrate within the cell before beginning recording. Currents were lowpass filtered between 2-5 kHz and digitally sampled at 10 kHz. Series resistance was compensated 60-70% and was monitored continuously throughout the experiment. The liquid junction potential (−7 mV) between the intracellular pipette solution and the external recording solution was not accounted for in the data analysis. Test solutions were applied to the cells with a gravity driven fast perfusion system (SF-77; Warner Instruments). […]
By IC50 is commonly meant the concentration needed to halve the response being measured. Turning to `CC(C)COC(=O)N1CCN(c2ccnc(-c3ccccc3O)n2)CC1` [Compound 34, 4-[2-(2-hydroxyphenyl)pyrimidin-4-yl]piperazine-1-carboxylic acid isobutyl ester], the IC50 was greater than 15 µM.

Regarding `CC(C)COC(=O)NC1CCN(c2ccnc(-c3ccccc3O)n2)CC1` [Compound 35, [1-[2-(2-hydroxyphenyl)pyrimidin-4-yl]-4-piperidyl]aminoformic acid isobutyl ester], the IC50 lay within 10 to 15 µM. Same read-out and setting: under `CC(C)COC(=O)N[C@H]1CCN(c2cncc(-c3ccccc3C(F)F)n2)C1` [Compound 36, [1-[6-[2-(difluoromethyl)phenyl]pyrazin-2-yl]pyrrolidin-3-yl]aminoformic acid isobutyl ester] stands less than 10 µM; under `CC(C)C[C@@H](O)C(=O)N1CCN(c2cncc(-c3ccccc3O)n2)CC1` [Compound 38, 2-hydroxy-1-[4-[6-(2-hydroxyphenyl)pyrazin-2-yl]piperazin-1-yl]-4-methyl-pentan-1-one], greater than 15 µM.

In the case of `CC(C)C[C@@H](O)C(=O)N1CCN(c2nccc(-c3ccccc3O)n2)CC1` [Compound 39, 2-hydroxy-1-[4-[4-(2-hydroxyphenyl)pyrimidin-2-yl]piperazin-1-yl]-4-methyl-pentan-1-one], the IC50 was less than 10 µM.

For the molecule `CC(C)(C)OC(=O)N[C@@H]1CCN(c2cncc(-c3ccccc3O)n2)C1` [Compound 40, [1-[6-(2-hydroxyphenyl)pyrazin-2-yl]pyrrolidin-3-yl]aminoformic acid tert-butyl ester], the IC50 is greater than 15 µM.

On to `CC(C)OC(=O)N[C@@H]1CCN(c2cncc(-c3ccccc3O)n2)C1` [Compound 41, [1-[6-(2-hydroxyphenyl)pyrazin-2-yl]pyrrolidin-3-yl]aminoformic acid isopropyl ester], for which the IC50 is greater than 15 µM. Same read-out and setting: the result for `CC(C)C[C@@H](O)C(=O)N1CCN(c2ccnc(-c3ccccc3F)n2)CC1` [Compound 42, 1-[4-[2-(2-fluorophenyl)pyrimidin-4-yl]piperazin-1-yl]-2-hydroxy-4-methyl-pentan-1-one] reads greater than 15 µM; that for `CC(C)(C)OC(=O)N[C@@H]1CCN(c2cncc(-c3ccccc3C(F)F)n2)C1` [Compound 43, [1-[6-[2-(difluoromethyl)phenyl]pyrazin-2-yl]pyrrolidin-3-yl]aminoformic acid tert-butyl ester], 10 to 15 µM; that for `CC(C)C[C@@H](O)C(=O)N1CCN(c2cc(-c3ccccc3F)ncn2)CC1` [Compound 44, 1-[4-[6-(2-fluorophenyl)pyrimidin-4-yl]piperazin-1-yl]-2-hydroxy-4-methyl-pentan-1-one], greater than 15 µM. Still for that read-out and setting: the result for `CC(C)COC(=O)NC1CCN(c2cncc(-c3ccccc3F)n2)CC1` [Compound 45, [1-[6-(2-fluorophenyl)pyrazin-2-yl]-4-piperidyl]aminoformic acid isobutyl ester] reads less than 10 µM; that for `CC(C)COC(=O)N1CCN(c2cncc(-c3ccccc3F)n2)CC1` [Compound 46, 4-[6-(2-fluorophenyl)pyrazin-2-yl]piperazine-1-carboxylic acid isobutyl ester], greater than 15 µM; that for `COCCOC(=O)NC1CCN(c2cncc(-c3ccccc3O)n2)CC1` [Compound 47, [1-[6-(2-hydroxyphenyl)pyrazin-2-yl]-4-piperidyl]aminoformic acid 2-methoxyethyl ester], greater than 15 µM. As for `CC(C)COC(=O)NC1CCN(c2cncc(-c3ccccc3C(F)F)n2)CC1` [Compound 48, [1-[6-[2-(difluoromethyl)phenyl]pyrazin-2-yl]-4-piperidyl]aminoformic acid isobutyl ester], the IC50 is less than 10 µM. Regarding `CC(C)C[C@@H](O)C(=O)N1CCN(c2cc(-c3ccccc3C(F)F)ncn2)CC1` [Compound 49, 1-[4-[6-[2-(difluoromethyl)phenyl]pyrimidin-4-yl]piperazin-1-yl]-2-hydroxy-4-methyl-pentan-1-one], the IC50 was greater than 15 µM. The same measure, in the same setting: the result for `CC(C)(C)OC(=O)NC1CCN(c2cncc(-c3ccccc3O)n2)CC1` [Compound 52, [1-[6-(2-hydroxyphenyl)pyrazin-2-yl]-4-piperidyl]aminoformic acid tert-butyl ester] reads less than 10 µM.

In a further assay the target is T1, NaV1.8.
Test: not given
Conditions: read-out: TTX IC50; cited from earlier work.
With `NC1=N[C@H](O)[C@H]2[C@H]3O[C@]4(O)O[C@@H]([C@@H](O)[C@@]2(N1)[C@@H]4O)[C@]3(O)CO` [TTX, tetrodotoxin], the 50% inhibitory concentration (IC50) was greater than 50 µM.

The subject of another assay is neuropathic pain.
Test: not given
Conditions: modest efficacy; cited from earlier work.
For `NCC1(CC(=O)O)CCCCC1` [Gabapentin], the “patients in which it works” value is 60%.

The record behind these values is US7858786B2, “Pyrimidines and pyrazines useful as modulators of ion channels” (Vertex Pharmaceuticals Incoropated, priority 2005, dated 2010).
